Experimental data reported in PubChem BioAssay (NCI).
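The compound was tested at five concentrations on cells cultured in 96-well plates, with a 48-hour exposure period. Abbreviation: GI50, concentration required for 50% inhibition of growth. TGI is the concentration that stops growth completely.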

Legend:
Test in all cases: DTP human tumour cell line panel, 48 h
[1] = tested on: NCI/ADR-RES ovarian
[2] = tested on: OVCAR-3 ovarian
[3] = tested on: K-562 leukemia
[4] = tested on: 786-0 renal
[5] = tested on: RPMI-8226 leukemia
[6] = tested on: HOP-62 NSCLC
[7] = tested on: KM12 colon
[8] = tested on: MDA-MB-435
[9] = tested on: MOLT-4 leukemia
[10] = tested on: HS 578T breast
[11] = tested on: UACC-257 melanoma
[12] = tested on: LOX IMVI melanoma
[13] = tested on: HCT-15 colon
[14] = tested on: CAKI-1 renal
[15] = tested on: BT-549 breast
[16] = tested on: A549 NSCLC
[17] = tested on: RXF 393 renal
[18] = tested on: EKVX NSCLC
[19] = tested on: DU-145 prostate
[20] = tested on: M14 melanoma
[21] = tested on: SK-MEL-5 melanoma
[22] = tested on: NCI-H23 lung
[23] = tested on: HOP-92 NSCLC
[24] = tested on: SNB-75 CNS
[25] = tested on: SNB-19 CNS
[26] = tested on: SW-620 colon
[27] = tested on: HCC-2998 colon

With CN1CCCN(Cc2ccc(C(=O)Nc3cccc(Nc4ccc5c(O)cccc5n4)c3)cc2C(F)(F)F)CC1 the TGI [1] was 68.5 µM, the GI50 [2] was 1970 nM and the TGI [2] was 4.41 µM. The GI50 [3] was 2180 nM, the TGI [3] was over 100 µM and the GI50 [4] was 2060 nM. The TGI [4] was 3.8 µM, the GI50 [5] was 2890 nM and the TGI [5] was 9.36 µM. The GI50 [6] was 2030 nM, the TGI [6] was 4.58 µM and the GI50 [7] was 1980 nM. The TGI [7] was 3.99 µM, the GI50 [8] was 1780 nM and the TGI [8] was 3.6 µM. For the same molecule, the GI50 [9] was 2110 nM, the TGI [9] was 6.94 µM and the GI50 [10] was 1930 nM. It also gave a TGI [10] of 4.85 µM, a GI50 [11] of 1600 nM and a TGI [11] of 3.2 µM. The GI50 [12] was 1630 nM, the TGI [12] was 2990 nM and the GI50 [13] was 1930 nM. The TGI [13] was 4.04 µM, the GI50 [14] was 1800 nM and the TGI [14] was 3.94 µM. The GI50 [15] was 1800 nM, the TGI [15] was 3.28 µM and the GI50 [16] was 3.63 µM. For the same molecule, the TGI [16] was 15.1 µM, the GI50 [17] was 1850 nM and the TGI [17] was 3.71 µM. For the same molecule, the GI50 [18] was 1820 nM, the TGI [18] was 3.5 µM and the GI50 [19] was 3.27 µM. The TGI [19] was 10.1 µM, the GI50 [20] was 1890 nM and the TGI [20] was 4.49 µM. For the same molecule, the GI50 [21] was 1720 nM, the TGI [21] was 3.09 µM and the GI50 [22] was 1780 nM. For the same molecule, the TGI [22] was 3.31 µM, the GI50 [23] was 1640 nM and the TGI [23] was 4.41 µM. The GI50 [24] was 1320 nM, the TGI [24] was 7.46 µM and the GI50 [25] was 2030 nM. The TGI [25] was 3.91 µM, the GI50 [26] was 1950 nM and the TGI [26] was 3.44 µM. For the same molecule, the GI50 [27] was 1800 nM and the TGI [27] was 3.19 µM.
